SMILES strings stand for the structures. Values after ≈ are worked out from the molar mass of the structure shown.

For one assay, the system named is PANC-1 (pancreatic cancer) cells. Nature of the assay: MTT cell growth inhibition, solid tumor cells. The assay is classed as cell-based, human. Conditions: Homo sapiens; PANC-1, 72 h, MTT; read-out: IC90. The essentials:
(§1)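 Exposure lasted 72 h, following 24 h growth of 6000 cells/well in DMEM high glucose containing 10% FBS at 37 °C in 5% CO2; endpoint was MTT-based viable cell concentration across tested compound concentrations.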
In the case of `COc1ccc2cc1Oc1ccc(cc1)C[C@H]1c3cc(c(OC)cc3CCN1C)Oc1c(OCC(O)CN3CCSCC3)c(OC)cc3c1[C@H](C2)N(C)CC3` (stereo partly drawn) [BS-FC-417], the IC90 (commonly the concentration needed for an effect of 90%) turned out to be 9 µg/mL (≈ 11.7 µM).

In the next assay the test system is PC-3 (prostate cancer) cells. Nature of the assay: MTT cell growth inhibition, solid tumor cells. The assay is classed as cell-based, human. Conditions: Homo sapiens; PC-3, 72 h, MTT; read-out: IC50. The essentials:
as §1
Turning to `COc1ccc2cc1Oc1ccc(cc1)C[C@H]1c3cc(c(OC)cc3CCN1C)Oc1c(OCC(O)CN3CCSCC3)c(OC)cc3c1[C@H](C2)N(C)CC3` (stereo partly drawn) [BS-FC-417], the half-maximal inhibitory concentration (IC50) (commonly the midpoint of a concentration-inhibition curve) was found to be 3.68 µg/mL (≈ 4.79 µM).

The assay is the same for the next values; noted with them: Homo sapiens; PC-3, 72 h, MTT; read-out: IC90.
Regarding `COc1ccc2cc1Oc1ccc(cc1)C[C@H]1c3cc(c(OC)cc3CCN1C)Oc1c(OCC(O)CN3CCSCC3)c(OC)cc3c1[C@H](C2)N(C)CC3` (stereo partly drawn) [BS-FC-417], the IC90 is 9.36 µg/mL (≈ 12.2 µM).

The subject of another assay is SK-OV-3 (ovarian cancer) cells. Nature of the assay: MTT cell growth inhibition, solid tumor cells. The assay is classed as cell-based, human. Conditions: Homo sapiens; SK-OV-3, 72 h, MTT; read-out: IC50. The essentials: as §1
Consider `COc1ccc2cc1Oc1ccc(cc1)C[C@H]1c3cc(c(OC)cc3CCN1C)Oc1c(OCC(O)CN3CCSCC3)c(OC)cc3c1[C@H](C2)N(C)CC3` (stereo partly drawn) [BS-FC-417], for which the IC50 is 4.6 µg/mL (≈ 5.99 µM).

Staying with this assay, now noted: Homo sapiens; SK-OV-3, 72 h, MTT; read-out: IC90.
Regarding `COc1ccc2cc1Oc1ccc(cc1)C[C@H]1c3cc(c(OC)cc3CCN1C)Oc1c(OCC(O)CN3CCSCC3)c(OC)cc3c1[C@H](C2)N(C)CC3` (stereo partly drawn) [BS-FC-417], the IC90 amounted to 12.9 µg/mL (≈ 16.8 µM).

The test system of another assay is Becap-37 (human breast cancer) cells. Nature of the assay: MTT cell growth inhibition, solid tumor cells. It is filed as cell-based. Conditions: Homo sapiens; Becap-37, 72 h, MTT; read-out: IC50. The essentials:
as §1
With `COc1ccc2cc1Oc1ccc(cc1)C[C@H]1c3cc(c(OC)cc3CCN1C)Oc1c(OCC(O)CN3CCSCC3)c(OC)cc3c1[C@H](C2)N(C)CC3` (stereo partly drawn) [BS-FC-417], the IC50 was found to be 2.42 µg/mL (≈ 3.15 µM).

Staying with this assay, now noted: Homo sapiens; Becap-37, 72 h, MTT; read-out: IC90.
With `COc1ccc2cc1Oc1ccc(cc1)C[C@H]1c3cc(c(OC)cc3CCN1C)Oc1c(OCC(O)CN3CCSCC3)c(OC)cc3c1[C@H](C2)N(C)CC3` (stereo partly drawn) [BS-FC-417], the IC90 was found to be 6.16 µg/mL (≈ 8.02 µM).

The subject of the next assay is Hela (human cervical cancer) cells. As to the kind of experiment: MTT cell growth inhibition, solid tumor cells. It is filed as cell-based. Conditions: Homo sapiens; Hela, 72 h, MTT; read-out: IC50. The essentials:
as §1
In the case of `COc1ccc2cc1Oc1ccc(cc1)C[C@H]1c3cc(c(OC)cc3CCN1C)Oc1c(OCC(O)CN3CCSCC3)c(OC)cc3c1[C@H](C2)N(C)CC3` (stereo partly drawn) [BS-FC-417], the IC50 amounted to 1.73 µg/mL (≈ 2.25 µM).

Staying with this assay, now noted: Homo sapiens; Hela, 72 h, MTT; read-out: IC90.
Turning to `COc1ccc2cc1Oc1ccc(cc1)C[C@H]1c3cc(c(OC)cc3CCN1C)Oc1c(OCC(O)CN3CCSCC3)c(OC)cc3c1[C@H](C2)N(C)CC3` (stereo partly drawn) [BS-FC-417], the IC90 was determined as 4.47 µg/mL (≈ 5.82 µM).

The next assay has as its system Hep G2 (human liver cancer) cells. Nature of the assay: MTT cell growth inhibition, solid tumor cells. It is filed as cell-based. Conditions: Homo sapiens, HepG2; Hep G2, 72 h, MTT; read-out: IC50. The essentials: as §1
For `COc1ccc2cc1Oc1ccc(cc1)C[C@H]1c3cc(c(OC)cc3CCN1C)Oc1c(OCC(O)CN3CCSCC3)c(OC)cc3c1[C@H](C2)N(C)CC3` (stereo partly drawn) [BS-FC-417], the 50% inhibitory concentration (IC50) amounted to 1.8 µg/mL (≈ 2.34 µM).

The assay is the same for the next values; noted with them: Homo sapiens, HepG2; Hep G2, 72 h, MTT; read-out: IC90.
In the case of `COc1ccc2cc1Oc1ccc(cc1)C[C@H]1c3cc(c(OC)cc3CCN1C)Oc1c(OCC(O)CN3CCSCC3)c(OC)cc3c1[C@H](C2)N(C)CC3` (stereo partly drawn) [BS-FC-417], the IC90 came out at 5.79 µg/mL (≈ 7.54 µM).

The next assay has as its system MG-63 (osteosarcoma) cells. As to the kind of experiment: MTT cell growth inhibition, solid tumor cells. It is filed as cell-based. Conditions: Homo sapiens; MG-63, 72 h, MTT; read-out: IC50. The essentials:
as §1
On to `COc1ccc2cc1Oc1ccc(cc1)C[C@H]1c3cc(c(OC)cc3CCN1C)Oc1c(OCC(O)CN3CCSCC3)c(OC)cc3c1[C@H](C2)N(C)CC3` (stereo partly drawn) [BS-FC-417], for which the IC50 turned out to be 2 µg/mL (≈ 2.6 µM).

The assay is the same for the next values; noted with them: Homo sapiens; MG-63, 72 h, MTT; read-out: IC90.
In the case of `COc1ccc2cc1Oc1ccc(cc1)C[C@H]1c3cc(c(OC)cc3CCN1C)Oc1c(OCC(O)CN3CCSCC3)c(OC)cc3c1[C@H](C2)N(C)CC3` (stereo partly drawn) [BS-FC-417], the IC90 is 3.6 µg/mL (≈ 4.69 µM).

A further assay has as its system RKO (human colon adenocarcinoma) cells. As to the kind of experiment: MTT cell growth inhibition, solid tumor cells. Conditions: Homo sapiens; RKO, 72 h, MTT; read-out: IC50. The assay is classed as cell-based. The essentials: as §1
Take `COc1ccc2cc1Oc1ccc(cc1)C[C@H]1c3cc(c(OC)cc3CCN1C)Oc1c(OCC(O)CN3CCSCC3)c(OC)cc3c1[C@H](C2)N(C)CC3` (stereo partly drawn) [BS-FC-417]: the IC50 was found to be 1.09 µg/mL (≈ 1.42 µM).

Staying with this assay, now noted: Homo sapiens; RKO, 72 h, MTT; read-out: IC90.
As for `COc1ccc2cc1Oc1ccc(cc1)C[C@H]1c3cc(c(OC)cc3CCN1C)Oc1c(OCC(O)CN3CCSCC3)c(OC)cc3c1[C@H](C2)N(C)CC3` (stereo partly drawn) [BS-FC-417], the IC90 was found to be 2.27 µg/mL (≈ 2.96 µM).

A further assay concerns U87-MG (malignant glioma) cells. Nature of the assay: MTT cell growth inhibition, solid tumor cells. The assay is classed as cell-based. Conditions: Homo sapiens, U-87 MG; U87-MG, 72 h, MTT; read-out: IC50. The essentials:
as §1
As to `COc1ccc2cc1Oc1ccc(cc1)C[C@H]1c3cc(c(OC)cc3CCN1C)Oc1c(OCC(O)CN3CCSCC3)c(OC)cc3c1[C@H](C2)N(C)CC3` (stereo partly drawn) [BS-FC-417], the IC50 came to 1.49 µg/mL (≈ 1.94 µM).

The same assay, now with this note: Homo sapiens, U-87 MG; U87-MG, 72 h, MTT; read-out: IC90.
As for `COc1ccc2cc1Oc1ccc(cc1)C[C@H]1c3cc(c(OC)cc3CCN1C)Oc1c(OCC(O)CN3CCSCC3)c(OC)cc3c1[C@H](C2)N(C)CC3` (stereo partly drawn) [BS-FC-417], the IC90 was 4.25 µg/mL (≈ 5.53 µM).

A further assay has as its system tumor. As to the kind of experiment: Antitumor activity compared with fangchinoline, overall statement. Conditions: tumor type not specified. The assay is classed as cell-based.
Take `COc1ccc2cc1Oc1ccc(cc1)C[C@H]1c3cc(c(OC)cc3CCN1C)Oc1c(OCC(O)CN3CCSCC3)c(OC)cc3c1[C@H](C2)N(C)CC3` (stereo partly drawn) [BS-FC-417]: the “antitumor activity compared with that of fangchinoline” value is “significantly superior”.
